Measured values taken from patent US9290511B2, “Thieno-pyrimidines, useful as potassium channel inhibitors” (XENTION LIMITED, priority 2011, dated 2016).

The compounds below were run against T1, Kir3.1/3.4 (Rattus norvegicus, UniProt P48548+P63251) (assay: Kir3.1/3.4 Electrophysiology Method (manual whole-cell patch clamp)). Conditions: Electrophysiology Method (TABLE 1).
T1 construct: expressed in transfected cells
T1 sequence (P63251 1-501): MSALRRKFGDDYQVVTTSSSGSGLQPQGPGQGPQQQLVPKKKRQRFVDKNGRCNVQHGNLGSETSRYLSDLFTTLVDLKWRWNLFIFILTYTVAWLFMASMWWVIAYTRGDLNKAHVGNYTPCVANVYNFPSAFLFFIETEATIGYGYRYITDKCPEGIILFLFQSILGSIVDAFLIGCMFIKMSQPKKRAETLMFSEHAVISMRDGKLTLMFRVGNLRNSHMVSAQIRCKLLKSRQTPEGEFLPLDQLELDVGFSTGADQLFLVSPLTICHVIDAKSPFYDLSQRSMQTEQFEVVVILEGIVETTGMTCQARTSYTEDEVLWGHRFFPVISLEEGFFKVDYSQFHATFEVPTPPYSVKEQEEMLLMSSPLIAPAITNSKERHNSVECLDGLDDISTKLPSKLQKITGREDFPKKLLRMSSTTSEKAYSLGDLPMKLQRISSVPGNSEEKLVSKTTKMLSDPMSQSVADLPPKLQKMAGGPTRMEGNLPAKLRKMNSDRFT
T1 sequence (P48548 1-419): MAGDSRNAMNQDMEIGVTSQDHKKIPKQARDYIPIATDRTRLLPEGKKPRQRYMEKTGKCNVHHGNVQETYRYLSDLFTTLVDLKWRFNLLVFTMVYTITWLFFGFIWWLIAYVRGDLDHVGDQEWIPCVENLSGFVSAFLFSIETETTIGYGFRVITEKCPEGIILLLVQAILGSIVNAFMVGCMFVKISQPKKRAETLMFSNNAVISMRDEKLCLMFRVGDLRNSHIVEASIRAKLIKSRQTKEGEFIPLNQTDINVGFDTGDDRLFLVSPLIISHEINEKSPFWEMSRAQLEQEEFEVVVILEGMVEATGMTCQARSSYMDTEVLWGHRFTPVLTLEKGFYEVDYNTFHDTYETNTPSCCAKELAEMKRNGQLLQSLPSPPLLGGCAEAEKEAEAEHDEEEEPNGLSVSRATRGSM
Type: cell-based
Summary of the method: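 Manual whole-cell patch clamp on HEK293 cells stably expressing rat Kir3.1/3.4, with GTPγS in the pipette. Cells were held at −60 mV and stepped to +60 mV, then ramped to −140 mV every 10 s. Steady-state inhibition at −140 mV was measured after subtracting leak recorded in zero-K+ bath.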
Work on `CC(C)(C)NCC1CC2CCC(C1)N2c1ncnc2scc(-c3ccccc3)c12` (centres unmarked) [Example 333] yielded an IC50 of under 0.5 µM.
Compound `CN(C)C(=O)c1sc2ncnc(N3C4CCC3CC(COCCN3CCCC3)C4)c2c1-c1ccccc1` (centres unmarked) [Example 356] has an IC50 of under 0.5 µM.
`Nc1nc(N2CCC(COCCN3CCCC3)CC2)c2c(-c3ccccc3)csc2n1` [Example 314, 5-phenyl-4-[4-(2-pyrrolidin-1-ylethoxymethyl)-1-piperidyl]thieno[2,3-d]pyrimidin-2-amine] was tested, and the IC50 was under 0.5 µM.
`CN1CCC(NCC2CCN(c3ncnc4scc(-c5ccccc5)c34)CC2)CC1` [Example 97, 1-methyl-N-[[1-(5-phenylthieno[2,3-d]pyrimidin-4-yl)-4-piperidyl]methyl]piperidin-4-amine] gave an IC50 of under 0.5 µM.
`CC(C)c1csc2ncnc(N3CCC(CNCCC4CCCN4C)CC3)c12` (centres unmarked) [Example 242] showed an IC50 of under 0.5 µM.
`CN(C)C1CCCN(CC2CCN(c3ncnc4scc(-c5ccc(F)cc5)c34)CC2)C1` (centres unmarked) [Example 79, 1-[[1-[5-(4-fluorophenyl)thieno[2,3-d]pyrimidin-4-yl]-4-piperidyl]methyl]-N,N-dimethyl-piperidin-3-amine] was tested, and the IC50 was under 0.5 µM.
Compound `NC(=O)C1CCN(CCOC2CC3CC2CN3c2ncnc3scc(-c4ccccc4)c23)C1` (centres unmarked) [Example 290] has an IC50 of under 0.5 µM.
`CC(C)c1csc2ncnc(N3CC4CC3CC4OCCN3CC[C@@H](F)C3)c12` (some centres unmarked) [Example 295] showed an IC50 of under 0.5 µM.
`CC(C)NC(=O)c1sc2ncnc(N3CCC(COCCN4CCCC4)CC3)c2c1-c1ccccc1` [Example 139, N-isopropyl-5-phenyl-4-[4-(2-pyrrolidin-1-ylethoxymethyl)-1-piperidyl]thieno[2,3-d]pyrimidine-6-carboxamide] showed an IC50 of under 0.5 µM.
`Cc1csc2ncnc(N3CCC(COCCC4CCCN4C)CC3)c12` (centres unmarked) [Example 2, 5-methyl-4-[4-[2-(1-methylpyrrolidin-2-yl)ethoxymethyl]-1-piperidyl]thieno[2,3-d]pyrimidine] was tested, and the IC50 was 0.5 to 3 µM.
`CN(CC1CCN(c2ncnc3scc(-c4ccccc4)c23)CC1)C1CCC1` [Example 251] showed an IC50 of under 0.5 µM.
`CC(C)(C)NC(C)(C)C#Cc1ncnc2scc(-c3ccccc3)c12` [Example 318] was tested, and the IC50 was under 0.5 µM.
With `CN(CCC1CCCN1)CC1CCN(c2ncnc3scc(-c4ccccc4)c23)CC1` (centres unmarked) [Example 86, N-methyl-N-[[1-(5-phenylthieno[2,3-d]pyrimidin-4-yl)-4-piperidyl]methyl]-2-pyrrolidin-2-yl-ethanamine] the IC50 was under 0.5 µM.
`O=C(NCCN1CCCC1)C1CCN(c2ncnc3scc(-c4ccccc4)c23)C1` (centres unmarked) [Example 270] showed an IC50 of 0.5 to 3 µM.
With `CC1CC(CNCCC2CCCN2C)CN1c1ncnc2scc(-c3ccccc3)c12` (centres unmarked) [Example 209] the IC50 was under 0.5 µM.
`COCCNc1nc(N2CCC(CN(C)C3CCN(C)C3)CC2)c2c(-c3ccccc3)csc2n1` (centres unmarked) [Example 118] showed an IC50 of under 0.5 µM.
`CN1CCC(N(C)CC2CCN(c3nc(N4CCCC(C(N)=O)C4)nc4scc(-c5ccccc5)c34)CC2)C1` (centres unmarked) [Example 238] gave an IC50 of under 0.5 µM.
For `CN(C)[C@@H]1CCCN(CC2CCN(c3ncnc4scc(-c5ccccc5)c34)CC2)C1` [Example 216], the IC50 was under 0.5 µM.
`NC(=O)C1CCN(c2nc(N3CCC(CNC4CCC4)CC3)c3c(-c4ccccc4)csc3n2)C1` (centres unmarked) [Example 128] was tested, and the IC50 was 0.5 to 3 µM.
Work on `c1ccc(-c2csc3ncnc(N4CCC(CNCc5ccco5)CC4)c23)cc1` [Example 61, 1-(2-furyl)-N-[[1-(5-phenylthieno[2,3-d]pyrimidin-4-yl)-4-piperidyl]methyl]methanamine] yielded an IC50 of under 0.5 µM.
Compound `COCCNc1nc(N2CCC(CNC3CCC3)CC2)c2c(-c3ccccc3)csc2n1` [Example 126] has an IC50 of under 0.5 µM.
For `O=C(NCCN1CCCC1)C1CCN(c2ncnc3scc(-c4ccccc4)c23)CC1` [Example 267], the IC50 was 0.5 to 3 µM.
For `CN(C)CCN(C)CC1CCN(c2nc(N3CCC(C(N)=O)C3)nc3scc(-c4ccccc4)c23)CC1` (centres unmarked) [Example 225], the IC50 was under 0.5 µM.
For `C(#Cc1ncnc2scc(-c3ccccc3)c12)COCCN1CCCC1` [Example 161, 5-Phenyl-4-[3-(2-pyrrolidinyl-1-ylethoxy)prop-1-ynyl]thieno[2,3-d]pyrimidine], the IC50 was under 0.5 µM.
Compound `FC(F)(F)c1nc(N2CCC(COCCN3CCCC3)CC2)c2c(-c3ccccc3)csc2n1` [Example 340, 5-phenyl-4-[4-(2-pyrrolidin-1-ylethoxymethyl)-1-piperidyl]-2-(trifluoromethyl)thieno[2,3-d]pyrimidine] has an IC50 of under 0.5 µM.
`CN1CCC(N(C)CC2CCN(c3ncnc4sc(C(=O)N(C)C)c(-c5ccccc5)c34)CC2)C1` (centres unmarked) [Example 136] showed an IC50 of 0.5 to 3 µM.
`Cc1ccccc1-c1csc2ncnc(N3C4CCC3CC(NC3CCC3)C4)c12` (centres unmarked) [Example 344] was tested, and the IC50 was under 0.5 µM.
`c1ccc(-c2csc3nc(OC4CC5CC4CN5)nc(N4C5CCC4COC5)c23)cc1` (centres unmarked) [Example 349, 8-[2-(2-azabicyclo[2.2.1]heptan-5-yloxy)-5-phenyl-thieno[2,3-d]pyrimidin-4-yl]-3-oxa-8-azabicyclo[3.2.1]octane] showed an IC50 of under 0.5 µM.
`CN1CCC(N(C)CC2CCN(c3nc(N4CCNCC4)nc4scc(-c5ccccc5)c34)CC2)C1` (centres unmarked) [Example 112] was tested, and the IC50 was under 0.5 µM.
`CCN(CC)C(=O)C1CCCN(CC2CCN(c3ncnc4scc(-c5ccccc5)c34)CC2)C1` (centres unmarked) [Example 246] gave an IC50 of under 0.5 µM.
Compound `CN(C)C(=O)c1sc2ncnc(N3C4CCC3CC(N3CCCC3)C4)c2c1-c1ccccc1` (centres unmarked) [Example 353, N,N-dimethyl-5-phenyl-4-(3-pyrrolidin-1-yl-8-azabicyclo[3.2.1]octan-8-yl)thieno[2,3-d]pyrimidine-6-carboxamide] has an IC50 of under 0.5 µM.
For `c1ccc(-c2csc3ncnc(N4CC5C(COCCN6CCOCC6)C5C4)c23)cc1` (centres unmarked) [Example 38, 4-[2-[[3-(5-phenylthieno[2,3-d]pyrimidin-4-yl)-3-azabicyclo[3.1.0]hexan-6-yl]methoxy]ethyl]morpholine], the IC50 was 0.5 to 3 µM.
`c1ccc(-c2csc3ncnc(N4C5CCC4CC(N4CCC4)C5)c23)cc1` (centres unmarked) [Example 326] was tested, and the IC50 was under 0.5 µM.
Compound `O=[N+]([O-])c1ccc(-c2csc3ncnc(N4CCC(COCCN5CCCC5)CC4)c23)cc1` [Example 46, 5-(4-nitrophenyl)-4-[4-(2-pyrrolidin-1-ylethoxymethyl)-1-piperidyl]thieno[2,3-d]pyrimidine] has an IC50 of under 0.5 µM.
`COC1CCN(CC2CCN(c3ncnc4scc(-c5ccccc5)c34)CC2)C1` (centres unmarked) [Example 68, 4-[4-[(3-methoxypyrrolidin-1-yl)methyl]-1-piperidyl]-5-phenyl-thieno[2,3-d]pyrimidine] showed an IC50 of under 0.5 µM.
`CN(C)C(=O)c1sc2ncnc(N3C4CCC3CC(N(C)C3CCC3)C4)c2c1-c1ccccc1` (centres unmarked) [Example 347] showed an IC50 of under 0.5 µM.
`NC(=O)[C@@H]1CCCN1CC1CCN(c2ncnc3scc(-c4ccccc4)c23)CC1` [Example 106] was tested, and the IC50 was under 0.5 µM.
In the case of `CC(C)c1csc2ncnc(N3CC4CC3CC4OCCN3CC[C@H](F)C3)c12` (some centres unmarked) [Example 294], the IC50 is reported as under 0.5 µM.
Work on `CN1CC(N(C)CC2CCN(c3ncnc4scc(-c5ccccc5)c34)CC2)CC1=O` (centres unmarked) [Example 250] yielded an IC50 of 0.5 to 3 µM.
`COc1ccccc1-c1csc2ncnc(N3CCC(COCCN4CCCC4)CC3)c12` [Example 329] gave an IC50 of under 0.5 µM.
For `O[C@H]1CN(CC2CCN(c3ncnc4scc(-c5ccccc5)c34)CC2)C[C@@H]1N1CCCC1` [Example 67, (3S,4S)-1-[[1-(5-phenylthieno[2,3-d]pyrimidin-4-yl)-4-piperidyl]methyl]-4-pyrrolidin-1-yl-pyrrolidin-3-ol], the IC50 was under 0.5 µM.
`CN(C)C1CCCN(CC2CCN(c3nc(N4CCC(C(N)=O)C4)nc4scc(-c5ccccc5)c34)CC2)C1` (centres unmarked) [Example 123] was tested, and the IC50 was under 0.5 µM.
In the case of `CC1CCC(C)N1CC1CCN(c2ncnc3scc(-c4ccccc4)c23)CC1` (centres unmarked) [Example 98, 4-[4-[(2,5-dimethylpyrrolidin-1-yl)methyl]-1-piperidyl]-5-phenyl-thieno[2,3-d]pyrimidine], the IC50 is reported as 0.5 to 3 µM.
Compound `c1ccc(-c2csc3ncnc(N4CCC(N5CCCCC5)C4)c23)cc1` (centres unmarked) [Example 181, d]pyrimidine] has an IC50 of 0.5 to 3 µM.
Work on `CN1CCC[C@H]1CCNCC1CCN(c2ncnc3scc(-c4ccccc4)c23)CC1` [Example 100] yielded an IC50 of under 0.5 µM.
In the case of `CC(C)c1csc2ncnc(N3CCC(COCCN4CCCC4)CC3)c12` [Example 265], the IC50 is reported as under 0.5 µM.
Compound `COCC1CCN(c2nc(N3C4CCC3CC(O)C4)nc3scc(-c4ccccc4)c23)CC1` (centres unmarked) [Example 299] has an IC50 of 0.5 to 3 µM.
`COc1ccccc1-c1csc2ncnc(N3C4CCC3CC(NC3CCC3)C4)c12` (centres unmarked) [Example 342] was tested, and the IC50 was under 0.5 µM.
`c1cncc(-c2csc3ncnc(N4CCC(COCCN5CCCC5)CC4)c23)c1` [Example 324] gave an IC50 of 0.5 to 3 µM.
With `CC(C)c1csc2nc(N3CCC(COCCN4CCCC4)CC3)ncc12` [Example 157] the IC50 was under 0.5 µM.
